These results are taken from patent US5783597A, “2,5-disubstituted thiophenes: inhibitors of 5-lipoxygenase and inducible cyclooxygenase (COX-2) enzymes, composition and use” (Ortho Pharmaceutical Corporation, priority 1997, dated 1998).

One assay deals with LTB4 production. The experiment in a line: Ex vivo LTB4 production in peripheral (whole) blood of beagle dogs after oral dosing (Procedure IV). As for the experimental part: (§1) Sterile perforated teflon chambers (wiffle golf balls) were surgically implanted subcutaneously in the dorsal neck fold of beagle dogs (8-13 kg, mixed sex). After a recovery period of 1 month, a 1 ml sample of fluid exudate from each dog was aspirated from within the chamber using a 1 ml syringe and 20 gauge 1 inch needle inserted through one of the perforations in the ball. Immediately after obtaining the sample, 1.5 ml of 0.33% sterile carrageenan lambda (Sigma Chemical Co., St. Louis, Mo.) was injected into the chamber. Dilutions of the baseline samples were made in saline and analyzed for leukocyte count using a Coulter Counter (6.08-50 μm range). The sample was also analyzed for concentrations of PGE2 and LTB4 by adding 200 μl of sample to 1 ml ethanol and centrifuging the precipitate (1,500 X g, 7 min). The supernatant was aspirated and stored at 0° C. until enzyme linked immunosorbant assays (ELISAs) were performed (ELISA Technologies, Lexington, Ky.). Samples were also drawn at 5 and 24 hours post carrageenan challenge and treated in a similar manner. […]
(§2) Drug effects can be evaluated on several important aspects of inflammation using this in-vivo assay. […] Selectivity of a COX inhibitor can be determined by comparing PGE2 inhibition in peripheral blood (COX-1) to that of the inflammatory fluid exudate in the chamber (COX-2).

The target in assay [1] is T1, 5-lipoxygenase (5-LO) (Rattus norvegicus, UniProt P12527).
T1 construct: endogenous in cells; host or cells: intact RBL-1 (rat basophilic leukemia) cells, stimulated with calcium ionophore A23187
T1 sequence (P12527 1-673): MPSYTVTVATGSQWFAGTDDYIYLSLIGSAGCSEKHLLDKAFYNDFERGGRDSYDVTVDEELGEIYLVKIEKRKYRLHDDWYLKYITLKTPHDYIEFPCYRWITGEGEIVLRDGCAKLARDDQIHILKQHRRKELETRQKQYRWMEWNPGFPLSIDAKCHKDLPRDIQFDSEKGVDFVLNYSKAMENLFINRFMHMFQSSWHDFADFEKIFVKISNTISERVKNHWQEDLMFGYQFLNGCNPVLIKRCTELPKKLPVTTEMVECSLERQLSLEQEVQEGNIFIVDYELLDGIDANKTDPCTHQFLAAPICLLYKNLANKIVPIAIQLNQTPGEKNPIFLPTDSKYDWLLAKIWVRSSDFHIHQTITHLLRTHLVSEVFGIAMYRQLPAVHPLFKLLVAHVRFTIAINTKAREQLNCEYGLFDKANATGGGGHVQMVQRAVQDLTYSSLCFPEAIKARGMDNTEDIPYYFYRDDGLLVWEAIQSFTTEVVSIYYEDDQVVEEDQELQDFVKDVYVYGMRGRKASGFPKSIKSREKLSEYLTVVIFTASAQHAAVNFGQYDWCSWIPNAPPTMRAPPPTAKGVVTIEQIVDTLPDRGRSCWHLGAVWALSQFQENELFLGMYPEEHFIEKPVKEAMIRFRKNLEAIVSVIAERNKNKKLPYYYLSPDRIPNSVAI
The experiment in a line: RBL-1 cell 5-lipoxygenase and cyclooxygenase - Homogenate (Procedure I). The assay is classed as biochemical. Particulars: RBL-1 homogenate supernatant, 5-HETE; read-out: Procedure I (5-LO) Homog. IC50. On the procedure: RBL-1 cell 5-lipoxygenase and cyclooxugenase - Homogenate
Rat basophilic leukemia cells (RBL-1; 5×10^7 viable cells/mL) were disrupted by homogenization on ice (four 20 sec bursts) with a Brinkman polytron. […] The homogenate was then centrifuged at 9,220×g for 48 minutes at 4° C. The pellet was discarded and the supernatant was saved as the source of enzymes. The supernatant was pre-incubated for five minutes at 37° C. in the presence of 2 mM of CaCl2 and compound or vehicle (1% DMSO). The conversion of AA into products by CO and LO was initiated by adding 10 μL (50 μCi) of 1-^14 C-AA to each tube and incubated at 37° C. for 20 minutes. The reaction was stopped by adjusting the pH of each sample to 3 to 3.5 with 2M formic acid. Samples were extracted with three volumes of chloroform to isolate the products of 5-LO formed during the reaction. Fractions were dried under nitrogen, then resuspended in 40 μL of chloroform and spotted onto silica gel HL plates. The plates were developed in A-9 solvent. The dried plates were analyzed using a Bioscan Imaging TLC scanner to determine the percentage of radiolabelled M converted to 5-HETE (LO product) and PGD2 (CO product) in each sample.

For assay [2], the target named is T1, 5-lipoxygenase (5-LO). Description: RBL-1 cell 5-lipoxygenase and cyclooxygenase - Whole cells (Procedure II). The assay is classed as cell-based. As to conditions: intact RBL-1 cells, 5-HETE; read-out: Procedure II (5-LO) Wh Cell IC50. On the procedure:
RBL-1 Cell 5-Lipoxygenase and cyclooxygenase - Whole cells
The ability to inhibit 5-LO and CO in intact RBL-1 cells was also evaluated. […] Cells were collected by centrifugation, washed once in HBSS, and resuspended at a concentration of 1×10^5 cells/mL. Cells were incubated in the presence of vehicle or drug then centrifuged at 800×g for 10 minutes at 4° C. The supernatant was removed by aspiration and the cells were resuspended in 0.5 mL of HBSS. […] The conversion of M to 5-LO products was initiated by the addition of 10 μL (50 uCi) of 1-^14 C-AA. Products were isolated by acidification and extraction, followed by thin layer chromatography analysis as described above. Radioactive areas corresponding to authentic 5-LO (5-HETE) and CO (PGD2) products were quantitated by the Bioscan 2000 Imaging System.

Assay [3] deals with inflammatory cells (leukocyte influx). The experiment in a line: Carrageenan-induced inflammation in subcutaneous chambers in beagle dogs: cellular (leukocyte) influx (Procedure IV). The assay is classed as in vivo. As to conditions: oral. As for the experimental part: Carrageenan-Induced Localized Inflammation In Subcutaneous Chambers Implanted In Beagle Dogs
as §1, with “Ky.).” for “Ky.). Samples were also drawn at 5 and 24 hours post carrageenan challenge and treated in a similar manner.”
as §2

Molecules are shown by their SMILES. Where only a bound is given, the exact number is not on record here.

On to `CS(=O)(=O)Nc1ccc(Oc2ccc(F)cc2)s1` [Example 1], for which the ED50 with LTB4 production (Canis lupus familiaris, 5 h, five hours after oral administration, ex vivo, read-out: inhibition of peripheral LTB4 production, IC50) was 4.4 mg/kg; in assay [3] (Canis lupus familiaris, Leukocyte, inflammatory chamber exudate, read-out: ED50 for inhibition of cellular influx), under 0.01 mg/kg. Besides, the “inhibition of LTB4 production in whole blood” value with LTB4 production (at 24 hours following dosing, oral) was “No inhibition of LTB4 production in whole blood was detected”. Besides, the IC50 (in general, the concentration at which inhibition is half-maximal) on 5-lipoxygenase (5-LO) [1] turned out to be 130 nM; at 5-lipoxygenase (5-LO) [2], 460 nM. The “inhibition of accumulation of inflammatory cells in the exudate” value in assay [3] (inflammatory chambers) is “dose related inhibition”.
